Test results from patent publication US9624233B2, “Compounds for treating pruritic conditions” (priority 2015, dated 2017).
Values joined by “and” are separate entries in the source; they are usually repeats but may differ in a detail not shown here. Identical values can stand only once.

What was measured:
BZD (central) = experiment: Abuse liability binding screen, BZD (central) (agonist radioligand); settings: 2.5E−05M
Protocol: (§1) Compound binding was calculated as a % inhibition of the binding of a radioactively labeled ligand specific for each target.

AMPA = experiment: Abuse liability binding screen, AMPA (antagonist radioligand); settings: 2.5E−05M
Protocol: as §1

kainate = experiment: Abuse liability binding screen, kainate (agonist radioligand); settings: 2.5E−05M
Protocol: as §1

NMDA = experiment: Abuse liability binding screen, NMDA (antagonist radioligand); settings: 2.5E−05M
Protocol: as §1

[1] = tested on: glycine (strychnine−insensitive); type: binding; settings: 2.5E−05M
Protocol: as §1

κ (KOP) = κ (KOP) (Rattus norvegicus, UniProt P34975); experiment: Binding screen and IC50 determination, κ (KOP) (agonist radioligand)
κ (KOP), sequence (P34975 whole entry): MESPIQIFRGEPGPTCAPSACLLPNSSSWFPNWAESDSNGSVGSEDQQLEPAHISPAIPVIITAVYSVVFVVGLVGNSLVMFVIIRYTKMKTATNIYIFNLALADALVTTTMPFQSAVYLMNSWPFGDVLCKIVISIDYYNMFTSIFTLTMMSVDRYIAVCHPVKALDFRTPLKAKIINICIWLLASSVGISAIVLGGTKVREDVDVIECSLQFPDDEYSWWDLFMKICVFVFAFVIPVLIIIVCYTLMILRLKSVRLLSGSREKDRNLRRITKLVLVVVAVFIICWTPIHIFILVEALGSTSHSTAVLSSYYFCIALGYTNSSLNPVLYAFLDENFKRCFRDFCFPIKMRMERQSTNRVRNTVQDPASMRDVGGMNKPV
Protocol: as §1

μ (MOP) (h) = μ (MOP) (h) (Homo sapiens, UniProt P35372); experiment: biochemical; type: binding
μ (MOP) (h), sequence (P35372 whole entry): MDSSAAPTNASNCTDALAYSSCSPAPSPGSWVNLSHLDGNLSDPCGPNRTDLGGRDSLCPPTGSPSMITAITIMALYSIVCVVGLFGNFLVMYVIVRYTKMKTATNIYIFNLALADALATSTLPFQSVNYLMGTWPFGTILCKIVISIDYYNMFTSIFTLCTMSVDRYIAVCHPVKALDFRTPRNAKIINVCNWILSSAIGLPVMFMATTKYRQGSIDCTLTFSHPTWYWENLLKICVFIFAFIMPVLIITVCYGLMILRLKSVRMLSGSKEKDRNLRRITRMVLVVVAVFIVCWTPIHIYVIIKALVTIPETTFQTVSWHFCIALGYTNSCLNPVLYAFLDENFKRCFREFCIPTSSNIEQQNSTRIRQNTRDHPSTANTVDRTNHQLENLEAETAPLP
Protocol: as §1

OX2 (h) = biological target: T1, OX2 (h) (Homo sapiens, UniProt O43614); experiment: Abuse liability binding screen, OX2 (h) (agonist radioligand)
T1 sequence (O43614 1-444): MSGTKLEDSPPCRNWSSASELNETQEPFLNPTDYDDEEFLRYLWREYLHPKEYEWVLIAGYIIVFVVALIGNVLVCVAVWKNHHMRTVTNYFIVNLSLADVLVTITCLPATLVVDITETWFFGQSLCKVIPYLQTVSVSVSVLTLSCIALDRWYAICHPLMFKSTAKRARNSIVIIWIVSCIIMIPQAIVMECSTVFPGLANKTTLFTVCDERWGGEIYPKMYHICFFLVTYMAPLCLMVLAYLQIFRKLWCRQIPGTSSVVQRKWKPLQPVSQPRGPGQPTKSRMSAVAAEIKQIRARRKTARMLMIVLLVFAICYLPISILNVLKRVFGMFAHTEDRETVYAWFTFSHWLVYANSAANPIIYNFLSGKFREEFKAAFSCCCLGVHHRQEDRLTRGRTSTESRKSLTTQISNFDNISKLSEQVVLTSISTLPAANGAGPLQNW
Protocol: […]. The abuse liability screen included 44 targets (receptors, transporters, on gated-channel systems) related to the dopamine, norepinephrine, serotonin, gamma-aminobutyric acid (GABA), acetylcholine, N-methyl-D-aspartate (NMDA) cannabinoid and opioid neurotransmitter systems as recommended in FDA Draft guidance on Assessment of Abuse Potential of Drugs, January 2010.
as §1
Results showing an inhibition or stimulation higher than 50% are considered to represent significant effects of the test compounds.

PCP = experiment: Abuse liability binding screen, PCP (antagonist radioligand); settings: 2.5E−05M
Protocol: as §1

ER (non-selective) (h) = experiment: Abuse liability binding screen, ER (non-selective) (h) (agonist radioligand); design: species or system human; settings: 2.5E−05M
Protocol: as §1

Na^+ channel (site 2) = experiment: Abuse liability binding screen, Na+ channel (site 2) (antagonist radioligand); settings: 2.5E−05M
Protocol: as §1

[2] = tested on: Cl^− channel (GABA-gated); experiment: Abuse liability binding screen, Cl− channel (GABA-gated) (antagonist radioligand); settings: 2.5E−05M
Protocol: as §1

GABA transporter = experiment: Abuse liability binding screen, GABA transporter (antagonist radioligand); settings: 2.5E−05M
Protocol: as §1

[3] = biological target: T2, μ-opioid receptor expressed in HEK cells (Mus musculus, UniProt P42866); experiment: Opioid receptor binding study, HEK-μ, [3H]DAMGO
T2 construct: expressed in transfected cells; host or cells: HEK (human embryonic kidney) cells
T2 sequence (P42866 whole entry): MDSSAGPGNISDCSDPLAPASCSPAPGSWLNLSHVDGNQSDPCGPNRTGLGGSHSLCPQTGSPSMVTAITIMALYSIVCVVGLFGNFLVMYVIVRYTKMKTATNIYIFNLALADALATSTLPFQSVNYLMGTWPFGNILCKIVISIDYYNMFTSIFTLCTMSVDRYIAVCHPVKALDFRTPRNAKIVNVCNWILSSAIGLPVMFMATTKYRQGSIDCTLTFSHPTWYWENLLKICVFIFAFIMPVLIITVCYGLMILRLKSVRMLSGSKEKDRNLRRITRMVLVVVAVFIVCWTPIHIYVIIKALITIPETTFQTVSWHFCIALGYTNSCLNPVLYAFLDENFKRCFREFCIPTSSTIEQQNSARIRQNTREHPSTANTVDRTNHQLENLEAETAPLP

[4] = biological target: T3, cloned human κ-opioid receptor expressed in CHO (Homo sapiens, UniProt P41145); experiment: biochemical; type: binding
T3 sequence (P41145 whole entry): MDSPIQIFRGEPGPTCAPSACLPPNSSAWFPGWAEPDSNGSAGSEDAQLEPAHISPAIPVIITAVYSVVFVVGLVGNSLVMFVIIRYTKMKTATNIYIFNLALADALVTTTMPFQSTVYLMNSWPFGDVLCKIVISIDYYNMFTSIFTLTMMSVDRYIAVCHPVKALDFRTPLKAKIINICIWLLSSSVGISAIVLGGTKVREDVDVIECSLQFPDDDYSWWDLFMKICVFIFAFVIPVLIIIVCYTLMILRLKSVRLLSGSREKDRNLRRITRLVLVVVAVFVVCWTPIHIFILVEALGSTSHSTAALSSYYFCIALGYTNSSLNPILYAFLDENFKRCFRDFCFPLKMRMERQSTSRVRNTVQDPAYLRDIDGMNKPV

[5] = biological target: T4, cloned human δ-opioid receptor expressed in CHO (Homo sapiens, UniProt P41143); experiment: Opioid receptor binding study, CHO-δ, [3H]DPDPE; settings: @ 25,000 nM, [3H]DADLE, read-out: % inhibition printed in the IC50 column
T4 construct: expressed in transfected cells; host or cells: CHO cells
T4 sequence (P41143 whole entry): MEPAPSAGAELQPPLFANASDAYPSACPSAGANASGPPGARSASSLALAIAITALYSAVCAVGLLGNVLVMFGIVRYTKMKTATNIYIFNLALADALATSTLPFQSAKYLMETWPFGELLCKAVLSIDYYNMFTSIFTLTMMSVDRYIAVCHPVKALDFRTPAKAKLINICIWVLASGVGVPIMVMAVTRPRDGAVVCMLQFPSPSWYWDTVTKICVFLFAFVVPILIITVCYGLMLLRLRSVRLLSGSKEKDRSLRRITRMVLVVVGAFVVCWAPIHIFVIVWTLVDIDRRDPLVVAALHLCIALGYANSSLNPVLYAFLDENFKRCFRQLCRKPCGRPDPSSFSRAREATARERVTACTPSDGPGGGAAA

[6] = biological target: T2, μ-opioid receptor expressed in HEK cells; experiment: Opioid cell functional assay, opioid-agonist assay, HEK-μ; type: cell-based
[7] = biological target: T3, cloned human κ-opioid receptor expressed in CHO; experiment: cell-based; settings: opioid-agonist assay
[8] = biological target: T4, cloned human δ-opioid receptor expressed in CHO; experiment: Opioid cell functional assay, opioid-agonist assay, CHO-δ; type: cell-based; settings: cell functional assays
[9] = biological target: T2, μ-opioid receptor expressed in HEK cells; experiment: Opioid cell functional assay, opioid-antagonist assay, HEK-μ (CTOP); type: cell-based
[10] = biological target: T3, cloned human κ-opioid receptor expressed in CHO; experiment: cell-based; design: Max Inh (%): dose or concentration left out as unconfirmed; settings: opioid-antagonist assay
[11] = Plasma Cmax in HD patients; settings: human
[12] = against a μ-opioid receptor agonist ligand

O=C(O)CC(CO)CN1CC[C@]23c4c5ccc(O)c4O[C@H]2[C@@H](O)CC[C@@]3(O)[C@H]1C5 (some centres unmarked) [Compound 1]
% Inhibition of Control Specific Binding 1st (BZD (central)): 3.4%
% Inhibition of Control Specific Binding 2nd (BZD (central)): 3.0%
% Inhibition of Control Specific Binding Mean (BZD (central)): 3.2%
% Inhibition of Control Specific Binding 1st (AMPA): 0.9%
% Inhibition of Control Specific Binding 2nd (AMPA): −3.7%
% Inhibition of Control Specific Binding Mean (AMPA): −1.4%
% Inhibition of Control Specific Binding 1st (kainate): 6.3%
% Inhibition of Control Specific Binding 2nd (kainate): 34.1%
% Inhibition of Control Specific Binding Mean (kainate): 20.2%
% Inhibition of Control Specific Binding 1st (NMDA): −12.5%
% Inhibition of Control Specific Binding 2nd (NMDA): −9.8%
% Inhibition of Control Specific Binding Mean (NMDA): −11.1%
% Inhibition of Control Specific Binding 1st [1]: −13.5%
% Inhibition of Control Specific Binding 2nd [1]: −9.7%
% Inhibition of Control Specific Binding Mean [1]: −11.6%
IC50 (κ (KOP)): 74 µM
Ki (κ (KOP)): 49 µM
nH (κ (KOP); IC50 determination): 0.7
% Inhibition of Control Specific Binding Mean (μ (MOP) (h); 2.5E−05M): 92.0%
nH (μ (MOP) (h); IC50 determination): 0.6
IC50 (μ (MOP) (h); [12]): 3.2 µM
Ki (μ (MOP) (h); [12]): 1300 nM
% Inhibition of Control Specific Binding 1st (OX2 (h); 2.5E−05M): −9.6%
% Inhibition of Control Specific Binding 2nd (OX2 (h); 2.5E−05M): −11.9%
% Inhibition of Control Specific Binding Mean (OX2 (h); 2.5E−05M): −10.7%
% Inhibition of Control Specific Binding 1st (PCP): −12.2%
% Inhibition of Control Specific Binding 2nd (PCP): −1.4%
% Inhibition of Control Specific Binding Mean (PCP): −6.8%
% Inhibition of Control Specific Binding 1st (ER (non-selective) (h)): −8.0%
% Inhibition of Control Specific Binding 2nd (ER (non-selective) (h)): 4.3%
% Inhibition of Control Specific Binding Mean (ER (non-selective) (h)): −1.9%
% Inhibition of Control Specific Binding 1st (Na^+ channel (site 2)): −4.4%
% Inhibition of Control Specific Binding 2nd (Na^+ channel (site 2)): 21.0%
% Inhibition of Control Specific Binding Mean (Na^+ channel (site 2)): 8.3%
% Inhibition of Control Specific Binding 1st [2]: 1.7%
% Inhibition of Control Specific Binding 2nd [2]: 1.0%
% Inhibition of Control Specific Binding Mean [2]: 1.3%
% Inhibition of Control Specific Binding 1st (GABA transporter): 7.4%
% Inhibition of Control Specific Binding 2nd (GABA transporter): −6.2%
% Inhibition of Control Specific Binding Mean (GABA transporter): 0.6%
IC50 [3]: 3.2 µM
Ki [3]: 1300 nM
NAL Selectivity relative to Comp1 / M5 (Compound 1 or M5 Ki/NAL Ki) ([3]; μ-receptor): 929
IC50 ([4]; CHO-κ, [3H]U 69593): 74 µM
Ki ([4]; CHO-κ, [3H]U 69593): 49 µM
NAL Selectivity relative to Comp1 / M5 (Compound 1 or M5 Ki/NAL Ki) ([4]; k-receptor): 13,611
inhibition at 25 µM [5]: 11%
EC50 ([6]; EC50 (nM), opioid-agonist assay, HEK-μ): 78000 nM and ~78000 nM
EC50 ([6]; EC50, μ-opioid receptor partial agonist/antagonist): ~173000 nM
μ-agonist EC50 relative to Cmax in HD patients ([6]; EC50 exceeding Cmax): ~4 fold
Max Inh (%) ([6]; opioid-agonist assay, HEK-μ): 61%
EC50 [7]: > 100 µM
Max Inh (%) [7]: 14%
activity at the delta receptor [8]: no activity
IC50 [9]: > 30 µM
inhibition at 30 µM ([9]; HEK293, read-out: Max Inh (%)): -1%
Max Inh (%) [10]: −10% @
IC50 ([10]; Nor-BNI, read-out: EC50 (nM) column (IC50 per footnote)): > 30000 nM
Cmax [11]: ~16 µM

Oc1ccc2c3c1O[C@H]1[C@@H](O)CC[C@@]4(O)[C@@H](C2)N(CC2CCC2)CC[C@]314 [Nalbuphine, nalbuphine]
% Inhibition of Control Specific Binding 1st (OX2 (h); 1.0E−05M): −11.3%
% Inhibition of Control Specific Binding 2nd (OX2 (h); 1.0E−05M): −7.4%
% Inhibition of Control Specific Binding Mean (OX2 (h); 1.0E−05M): −9.4%
